Structures are written as SMILES. pIC50: −log10 of the molar value. Activity calls are given as the source filed them. The rule behind the calls is not given here.

The record followed here is PubChem BioAssay AID1398 (The Scripps Research Institute Molecular Screening Center, 2008).

This test has as its target Signal transducer and activator of transcription 3 (Homo sapiens) (UniProt P40763). As to the kind of experiment: STAT3 activation reporter response, dose response, cell-based (AID 1398).

For orientation: IC50 means the concentration that inhibits the measured activity by half. Take `Cc1ccc(CC(=O)Nc2nc3c(s2)CCCC3)cc1`: the IC50 is > 55.7 µM (inactive).

As for `COc1ccc(C)cc1NC(=O)c1[nH]c(C)c(C(C)=O)c1C`, the IC50 entry is “inactive”.

As for `Nc1nnc(Cc2c[nH]c3ccccc23)s1`, the IC50 was > 55.7 µM (inactive).

On to `CCC(=O)NCCSc1c[nH]c2ccccc12`, for which the IC50 result was “inactive”.

What is called pIC50 is the IC50 on a negative log10 scale, so that one unit is a factor of ten. With `CCOc1ccc(CN2CCN(Cc3cc4ccccc4[nH]3)CC2CCO)cc1` (centres undefined), the pIC50 was 6.19.

As for `O=C(c1cc[n+]([O-])cc1)N1CCc2c([nH]c3ccccc23)C1c1ccccc1Cl` (centres undefined), the pIC50 was 5.08.

Turning to `Cn1nc(-c2ccc(Cl)cc2)c2cc(C(=O)NCC3CCCO3)sc21` (centres undefined), the IC50 was > 6.19 µM (inactive).

`CCc1cc2c(NCCC(=O)O)nc(C)nc2s1`: the IC50 was > 55.7 µM (inactive).

For `COCCNC(=O)C(=O)NNC(=O)c1ccccc1OC`, the IC50 result was “inactive”.

For `O=C(Cc1c[nH]c2ccccc12)Nc1nnc(C2CC2)s1`, the pIC50 is 5.53.

As to `O=C(CCc1nnc(Cc2ccc3c(c2)OCO3)o1)NCc1nc2ccccc2s1`, the pIC50 is 5.55.

With `O=C(CCCSc1nc2ccccc2s1)NCc1ccco1`, the IC50 result was “inactive”.

For the molecule `CC(=O)NCCC(=O)N1CCc2c([nH]c3ccccc23)C1c1cccc(C)c1` (centres undefined), the pIC50 is 5.60.

Take `CN1C(=O)c2ccccc2C(C(=O)NCCCN2CCCC2=O)C1c1c[nH]c2ccccc12` (centres undefined): the IC50 is > 55.7 µM (inactive).

On to `CN1CCN(C(=O)CNc2ccc(C(F)(F)F)cc2[N+](=O)[O-])CC1`, for which the pIC50 was 5.45.

For the molecule `Cn1nc(-c2ccc(Cl)cc2)c2cc(C(=O)NCCCN3CCOCC3)sc21`, the IC50 result was “inactive”.

Take `Nc1ccccc1Sc1nc2ccccc2[nH]1`: the IC50 entry is “inactive”.

`COc1ccc(Cl)cc1NC(=O)Nc1ccc(Br)cn1`: the IC50 was > 55.7 µM (inactive).

Turning to `O=C(CN1CCNCC1)Nc1ccc(Oc2ccccc2)cc1`, the IC50 is > 55.7 µM (inactive).

Regarding `O=C(Nc1nnc(-c2ccccc2Cl)o1)c1nc2ccccc2s1`, the IC50 was > 55.7 µM (inactive).

For `COc1ccc(C2c3[nH]c4ccccc4c3CCN2C(=O)c2cc3ncccn3n2)c(F)c1` (centres undefined), the pIC50 was 5.28.

Take `CCOC(=O)C1(CC2CCCCO2)CCN(Cc2cc3ccccc3[nH]2)CC1` (centres undefined): the IC50 was > 55.7 µM (inactive).

For the molecule `Cc1cc(-c2ccc(Cl)cc2)c(C#N)c(N)n1`, the pIC50 is 5.23.

Take `O=C(CCN1CCOCC1)N1CCc2c([nH]c3ccccc23)C1c1cccc(Cl)c1` (centres undefined): the pIC50 is 5.13.

As to `O=C(Cc1c[nH]c2ccccc12)Nc1nc2ccccc2[nH]1`, the pIC50 is 5.30.

As for `O=C(Cc1cccs1)Nc1ccccn1`, the pIC50 is 5.09.

Turning to `CC1Cc2ccccc2N1Cc1cc(=O)n2ccsc2n1` (centres undefined), the IC50 result was “inactive”.

Regarding `COCCSc1ccccc1C(=O)NCCc1ccccc1`, the IC50 is > 55.7 µM (inactive).

In the case of `COc1ccc(CN2CCN(S(=O)(=O)c3ccc(C)cc3)CC2)cc1Br`, the pIC50 was 5.21.

As for `CCC(C(=O)Nc1ccccc1OC)n1c(C(=O)OC)cc2ccsc21` (centres undefined), the pIC50 was 5.69.

On to `COc1cc(NC(=O)c2cc(-c3ccco3)on2)c(OC)cc1Cl`, for which the pIC50 was 5.77.

Turning to `CCOc1cc(-c2ccc(N)c(OCC)c2)ccc1N`, the IC50 was > 55.7 µM (inactive).

In the case of `COC(=O)NNC(=O)c1ccccc1OC`, the pIC50 is 5.22.

Take `COCc1cc(C)nc2sc(C(=O)NN)c(-n3cccc3)c12`: the IC50 entry was “inactive”.

As to `O=C(Nc1ccccc1O)c1csc2c1CCCC2`, the pIC50 was 5.61.

Consider `O=c1c2ccccc2ncn1Cc1ccco1`, for which the pIC50 is 5.25.

Turning to `c1ccc2c(CNC3CCCCCC3)c[nH]c2c1`, the IC50 was > 55.7 µM (inactive).

`CC(=O)n1cc(Nc2ccc([N+](=O)[O-])cc2)c2ccccc21`: the IC50 is > 55.7 µM (inactive).

Consider `COc1ccc(-c2nc3scc(-c4ccccc4)n3n2)cc1`, for which the pIC50 was 5.24.

`COC(=O)c1sccc1NC(=O)c1ccc(Br)s1`: the IC50 is > 18.6 µM (inactive).

Regarding `CCN(CC)S(=O)(=O)c1ccc(-c2nnc3sc4cccc(C)c4n23)cc1`, the IC50 is > 55.7 µM (inactive).

With `COc1cccc(-c2nc(N3CCCCC3C)c3ccccc3n2)c1O` (centres undefined), the IC50 was > 55.7 µM (inactive).

For the molecule `CN1N=C(C(=O)N2CCc3c([nH]c4ccccc34)C2c2c(F)cccc2Cl)CCC1=O` (centres undefined), the pIC50 is 5.32.

For the molecule `c1ccc2c(c1)CCCN2c1nc2ccccc2n2cnnc12`, the pIC50 is 5.87.

As to `COc1ccc(NC(=O)N2CCn3c2nc2ccccc23)cc1`, the IC50 was > 55.7 µM (inactive).

`Cc1noc(/C=C/N(C)C)c1S(=O)(=O)N1CCc2ccccc21`: the IC50 entry was “inactive”.

On to `CC1=NN(c2ccccc2)C(=O)/C1=C/c1c(O)[nH]c(=O)[nH]c1=O`, for which the IC50 is > 55.7 µM (inactive).

As to `COc1cccc2sc(Nc3nnc(-c4ccc(F)cc4)o3)nc12`, the IC50 is > 0.688 µM (inactive).

Turning to `COc1ccc(Cl)cc1NC(=O)c1oc(C)nc1C`, the IC50 was > 55.7 µM (inactive).

As for `CN1CCN(CCCNC(=O)c2cc3c(-c4ccc(Cl)cc4)nn(C)c3s2)CC1`, the pIC50 was 5.42.

In the case of `CCOc1ccccc1CN1CCN(Cc2cc3ccccc3[nH]2)CC1CCO` (centres undefined), the IC50 is > 55.7 µM (inactive).

Consider `COCCCNC(=O)c1cc2c(-c3ccc(Cl)cc3)nn(C)c2s1`, for which the IC50 was > 55.7 µM (inactive).

Take `O=C(Cc1cnc2ncnn2c1)N1CCc2c([nH]c3ccccc23)C1c1ccccc1F` (centres undefined): the IC50 result is “inactive”.

As for `CCOC(=O)CC1C(=O)NCCN1C(=O)c1cc2c(=O)n3cccc(C)c3nc2s1` (centres undefined), the IC50 is > 55.7 µM (inactive).

Consider `CCOC(=O)c1sc(NCc2ccco2)c(-c2nc3ccccc3s2)c1N`, for which the pIC50 is 5.01.

Turning to `COC(=O)c1n[nH]c2ccccc12`, the pIC50 was 5.48.

Take `COc1ccccc1-c1nnc(SCC(=O)NC2CCCCC2)o1`: the pIC50 is 5.73.

Regarding `COc1ccccc1C(=O)NNC(=O)c1ccc(NC(=O)C(C)C)cc1`, the pIC50 is 5.89.

For the molecule `CC(C)CC1c2[nH]c3ccccc3c2CCN1C(=O)CCC(=O)N(C)C` (centres undefined), the IC50 was > 6.19 µM (inactive).

Take `O=C(C1CCCN(S(=O)(=O)c2cccc3cccnc23)C1)N1CCc2ccccc21` (centres undefined): the IC50 is > 55.7 µM (inactive).

`CCCc1nnc(N2C(=O)c3cccc4cccc(c34)C2=O)s1`: the IC50 is > 55.7 µM (inactive).

Take `COc1ccc(S(=O)(=O)Nc2nc3ccccc3s2)cc1OC`: the IC50 entry was “inactive”.

Consider `CN(Cc1ccccc1)Cc1c[nH]c2ccccc12`, for which the IC50 is > 55.7 µM (inactive).

Take `Cc1c(C#N)c2ccccc2n1CC(=O)O`: the pIC50 was 5.29.

`Cc1nc(/N=C(\N)Nc2ccccc2)nc2ccccc12`: the pIC50 is 5.68.

As for `Cc1cccc2c1NC(=O)/C2=C\C(=O)c1cccs1`, the IC50 was > 18.6 µM (inactive).

`COc1ccc(C2c3[nH]c4ccccc4c3CCN2C(=O)c2ccc(=O)n(C)n2)c(F)c1` (centres undefined): the pIC50 was 5.61.

Regarding `CC(OC(=O)c1cccnc1SCc1cc(=O)n2ccccc2n1)c1ccccn1` (centres undefined), the IC50 is > 6.19 µM (inactive).

Consider `CC1=C(C)C(=O)C(N2CCOCC2)=CC1=O`, for which the IC50 result was “inactive”.

Take `O=C(c1cccnc1)N1CCc2ccccc21`: the pIC50 is 5.09.

`CN1C(=O)/C(=C\c2cc(Br)cs2)c2ccccc21`: the pIC50 was 6.20.

In the case of `NC(=O)CSc1c[nH]c2ccccc12`, the IC50 entry is “inactive”.

For `CCCN(CCC)C(=O)Cn1c2ccccc2c2nc(=O)cc(C)n21`, the pIC50 is 6.76.

`CN(C)C(=O)COC(=O)/C=C/c1ccccc1[N+](=O)[O-]`: the pIC50 is 5.11.

`CCCNC(=O)Cn1c2ccccc2c2nc(=O)cc(C)n21`: the pIC50 is 5.48.

With `COCCCNc1nc2c(-c3cccc(C(F)(F)F)c3)nnn2c2ccccc12`, the IC50 was > 55.7 µM (inactive).

On to `COCCNC(=O)c1cc2c(-c3ccc(Cl)cc3)nn(C)c2s1`, for which the IC50 is > 55.7 µM (inactive).

In the case of `O=C(O)C1CC=CCC1C(=O)Nc1ccc(S(=O)(=O)N2CCCc3ccccc32)cc1` (centres undefined), the pIC50 is 5.25.

With `COc1ccccc1C(=O)NNC(=S)Nc1ccccc1`, the IC50 is > 0.229 µM (inactive).

On to `Cc1nc2c(n1C1CCCCC1)C(=O)c1ccccc1C2=O`, for which the pIC50 was 5.24.

Take `Cc1cc(C)n(-c2nnc3n2N=C(c2c[nH]c4ccccc24)CS3)n1`: the IC50 entry is “inactive”.

With `CCOc1ccccc1-c1n[nH]c(=S)o1`, the pIC50 was 6.28.

As for `Cc1c(C(=O)NCc2cccnc2)oc2ccc(S(=O)(=O)N3CC(C)CC(C)C3)cc12` (centres undefined), the IC50 is > 55.7 µM (inactive).

Consider `O=C(O)C(Cc1c[nH]c2ccccc12)N1Cc2ccccc2C1=O` (centres undefined), for which the IC50 entry is “inactive”.

With `Cn1nc(-c2ccc(Cl)cc2)c2cc(C(=O)NCCN3CCOCC3)sc21`, the pIC50 is 5.16.

Turning to `O=C(COc1ccccc1Cl)Nc1cc(Cl)ccc1O`, the pIC50 was 6.24.

Regarding `COCc1cc(=O)n2c(-c3ccccc3OC)n[nH]c2n1`, the pIC50 was 6.09.

For the molecule `Cc1ccccc1C1c2[nH]c3ccccc3c2CCN1C(=O)c1ccc(=O)n(C)n1` (centres undefined), the pIC50 is 5.38.

For the molecule `CCn1c(C(=O)Nc2ccsc2C(=O)OC)cc2sc(Cl)cc21`, the IC50 is > 55.7 µM (inactive).

Regarding `N#Cc1cn(CC(=O)O)c2ccccc12`, the pIC50 is 5.01.

With `Cc1nn(-c2ccc(Cl)cc2)c(N)c1C(O)(CSc1nccn1C)C(F)(F)F` (centres undefined), the IC50 is > 55.7 µM (inactive).

As for `CC(=O)NCCC(=O)N1CCc2c([nH]c3ccccc23)C1c1cccc(Cl)c1` (centres undefined), the IC50 was > 55.7 µM (inactive).

In the case of `Cc1nc2ccccc2cc1O`, the pIC50 is 5.47.

`CC1CCN(C(=O)Cn2c(=O)n(CCc3ccccc3)c(=O)c3ccccc32)CC1`: the IC50 was > 55.7 µM (inactive).

Turning to `COc1ccc(Cl)cc1-c1nc(-c2ccc(Br)o2)no1`, the pIC50 is 5.07.

`COc1ccc(Br)cc1C(=O)Nc1cccc(C)c1`: the IC50 entry was “inactive”.

For `COc1ccc(-c2nnc(Nc3nc4c(OC)cccc4s3)o2)cc1`, the IC50 was > 55.7 µM (inactive).

As to `NNc1ncnc2sc3c(c12)CCC3`, the IC50 was > 55.7 µM (inactive).

Regarding `CC(=O)N1N=C(c2ccccc2O)OC1(C)CC(=O)Nc1ccccc1` (centres undefined), the IC50 was > 55.7 µM (inactive).
